# Data from US9650664B2, “Use of photocleavable compounds” (FEMTONICS KFT, priority 2011, dated 2017).
# Legend:
# [1] = tested on: hippocampal pyramide cell; experiment: two-photon stimulation of a hippocampal pyramide cell (Example 20); type: cell-based, Wistar rats; details: for Calcium tranziens by two-photon stimulation / somatically recorded EPSP by two-photon stimulation: 2.5 mM, 740 nm, with L-glutamic acid dehydrogenase and NADP; for toxicity: pyramid cell response to 500 ms -100, 0 and 125 pA current injection, waveform after stimulation
# Description: (§1) Acute hippocampus slices were prepared from 16-20 day old Wistar rats using isoflurane anaesthesia followed by swift decapitation. The process was in accordance with the Hungarian Act of Animal Care and Experimentation (1998. XXVIII, section 243). Coronal (300 μm) brain slices were cut with a vibratome and stored at room temperature in artificial cerebrospinal fluid (ACSF). The composition of the ACSF solution is described above.
# (§2) Hippocampus neurons in CA1 stratum radiatum near the border of the stratum lacunosum-moleculare were visualized using 900 nm infrared oblique illumination. Current-clamp recordings were made at 32° C. (MultiClamp 700B, Digidata 1440; Molecular Devices, Sunnyvale, Calif., USA) with glass electrodes (6-9 MΩ) filled with (in mM): 125 K-gluconate, 20 KCl, 10 HEPES, 10 Di-Tris-salt phosphocreatine, 0.3 Na-GTP, 4 Mg-ATP, 10 NaCl, 0.06 Oregon Green BAPTA-1 (OGB-1) and biocytin. Cells with a resting membrane potential more negative than −50 mV were accepted. The recorded cells were classified as nonpyramidal cells according to their electrophysiological properties.
# a.) After achieving the whole-cell mode and filling the interneurons with 60 μM OGB-1, the bath solution was exchanged to ACSF containing MNI-Glu-TFA [2.5 mM, Tocris]. Photolysis of MNI-Glu-TFA was performed with 710-830 nm ultrafast, pulsed laser light (Mai Tai HP Deep See, SpectraPhysics, Mountain View, Calif.). The intensity of the uncaging laser beam was controlled with an electro-optical modulator (Model 350-80 LA, Conoptics). Dispersion compensation was set to have maximal response at the depth of uncaging (50-80 μm from surface). The uncaging laser beam was coupled into the imaging optical pathway with a dichroic mirror (custom laser combiner, z750bcm; Chroma Technology Corp, Rockingham, USA). Chromatic aberration was compensated at the focal plane. Radial and axial beam (imaging and photochemical stimulating) alignment errors were held below 100 nm and 300 nm, respectively. Imaging was interleaved with two-photon glutamate uncaging periods, when galvanometers jumped to the maximum 15-25 selected locations (<60 μs jump time) and returned back to the 3D or 2D trajectory thereafter. The position of uncaging sites was finely adjusted according to background images taken. Photolysis of caged glutamate was performed in “clustered” (0.8±0.1 μm distance between inputs) patterns along the dendrite. The single spot uncaging time and laser intensity was set to reproduce uEPSPs and mEPSPs induced by the local application of high osmolar external solution at similar distances from the soma (amplitude of unitary gluEPSP: 0.56±0.09 mV, mEPSPs: 0.58±0.1, uEPSP: 0.55±0.12; exposure time 0.2-0.5 ms/input). Small drifts of the sample (on the order of 0.1-0.2 μm) during the mapping were compensated manually according to regularly taken background images. b.) After the test the perfusion rate was set to 10 ml/min in order to increase the exchange rate of ACSF containing 2.5 mM DNI-Glu*TFA used in the subsequent test. The test was repeated with the same setting of the equipment on the same dendrite section.
# The experiment was carried out according to Example 16 with the difference that the cell was filled with calcium sensitive dye (Fluo4) and anatomical dye (ALEXA 594). The experiments were carried out in accordance of the Example 16 with the following differences: after patch clamp the perfusion solution exchange to ACSF containing 2.5 mM iDMPO-DNI-Glutamic acid*2TFA and, or ACSF containing 2.5 mM iDMBO-DNI-Glutamic acid*2TFA, 0.1-0.2 units/ml of L-glutamic acid dehydrogenase and β-Nicotinamide adenine dinucleotide phosphate for the second measurement. The β-Nicotinamide adenine dinucleotide phosphate was kept in a concentration of 50-100 μM during the experiments. All chemical agents (cage compound, dehidrogenase, NADP apply into the bath). During the experiments the evaporation loss of dH2O was continuously refilled. […]
# [2] = weight increase on storage (hygroscopicity); type: physicochemical; details: 25° C. 50% relative humidity, after 72 hours storage
# Description: We measured the weight increase of MNI-Glubase and its salts with hydrochloric and trifluoroacetic acid at 25° C. 50% relative humidity.
# [3] = tested on: Hippocampus neurons in CA1 stratum radiatum; experiment: two-photon uncaging on acute hippocampus slices with neutralizing agents (EPSP, Ca2+ transient); type: cell-based, Wistar rats; details: 2.5 mM
# Description: as §1, §2
# Two-photon imaging started 15-20 minutes after attaining the whole-cell configuration on a two-photon laser-scanning system (Femto2D, Femtonics Ltd., Budapest) using femtosecond lasers (830-850 nm), Mai Tai HP, SpectraPhysics, Mountain View, Calif.). […]
# hippocampus neurons = details: according to WO2008/094922; cited from earlier work
# [4] = according to WO2008/094922; cited from earlier work
# [5] = tested on: Hippocampus neurons in CA1 stratum radiatum; experiment: spontaneous activity of the cell (EPSP frequency), voltage-clamp test; type: cell-based, Wistar rats
# Description: as §1, §2
# A.) Using the test setup of the two-photon excitation process according to Example 16 spontaneous potential changes of the observed cell was measured.
# At the beginning of the experiment the control level of potential changes (EPSP) was measured in the absence of DNI-Glu. The measured fluctuation is shown in FIG. 1/A. Following the test DNI-Glu (2.5 mM) was added to the measuring cell. The measured fluctuation is shown in FIG. 1/B. Then 0.1-0.2 unit/ml L-glutamic acid dehydrogenase enzyme and 200 μM NADP (β-Nicotinamide adenine dinucleotide phosphate) were added.
# B.) The experiment described in point A.) was repeated 8 times using other cells in each case. The column diagram can be seen on the left side. The average of the control level is shown in column a.). The average of the change due to the caged compound is shown in column b.), while the average level after the addition of the enzyme in column c.).
# [6] = spontaneous hydrolysis in ACSF; type: physicochemical
# Description: […] The solution was sampled at the beginning of the storage and 48 hours later and 4-methoxy-5,7-dinitro-2,3-dihydro-1H-indole was identified from the hydrolysis products by using LCMS method. The compound was identified by the peak of its molecule weight at 240. The sample taken after 48 hours was measured with HPLC equipment. Without correction 46.7% of DNI-Glu*TFA hydrolysed.
molecule,measurement,setting,value
"di-trifluoroacetic acid salt of 2-amino-1-(4′-dimethylamino-isopropoxy-5′,7′-dinitro-2′,3′-dihydro-indol-1′-yl)-5-oxo-pentanoic [iDMPO-DNI-Glu TFA]",Calcium tranziens by two-photon stimulation,[1],could evoke
same,somatically recorded EPSP by two-photon stimulation,[1],could evoke
same,toxicity,[1],not detected
COc1ccc([N+](=O)[O-])c2c1CCN2C(=O)CC[C@H](N)C(=O)O.Cl [MNI-Glu HCl salt],weight increase,[2],13.6%
"COc1c([N+](=O)[O-])cc([N+](=O)[O-])c2c1CCN2C(=O)CCC(N)C(=O)O (stereo not drawn) [DNI-Glu, 2-amino-5-(4′-methoxy-5′,7′-dinitro-2′,3′-dihydro-indol-1-yl)-5-oxo-pentanoic acid]","excitatory postsynaptic potential (EPSP) resulted by irradiation, compared with MNI-Glu",[3]; FIG. 2/A,significantly higher
same,"Ca2+ transient signal as a response of the irradiation, compared with MNI-Glu",[3]; FIG. 2/B,significantly higher
same,electrical signals in two-photon irradiation experiments,hippocampus neurons,no electrical signals
same,dissolution in physiological solutions,[4],so bad
same,frequency of EPSP / spontaneous responses after addition of glutamate dehydrogenase enzyme,"[5]; DNI-Glu 2.5 mM, then L-glutamic acid dehydrogenase and NADP",restored to the control level
same,EPSP Frequency MEAN,"[5]; DNI-Glu 2.5 mM, enzyme = 0.1-0.2 unit/ml L-glutamic acid dehydrogenase and 200 μM NADP, repeated 8 times, other cells",3.87 Hz
same,frequency of EPSP on addition to the perfusion solution,"[5]; DNI-Glu added, no enzyme",increased
"COc1c([N+](=O)[O-])cc([N+](=O)[O-])c2c1CCN2C(=O)CCC(N)C(=O)O.O=C(O)C(F)(F)F (stereo not drawn) [DNI-Glu*TFA, trifluoroacetic acid salt of 2-amino-5-(4′-methoxy-5′,7′-dinitro-2′,3′-dihydro-indol-1′-yl)-5-oxo-pentanoic acid]",hydrolysed,"[6]; 0.06 mg/ml in ACSF, stored at 32° C., 48 hours, HPLC, without correction",46.7%
same,speed of the formation of the glutamic acid,[6]; in 12 ml of ACSF,1 µmol/min
"di-trifluoroacetic acid salt of 2-amino-1-(4′-dimethylamino-isobutoxy-5′,7′-dinitro-2′,3′-dihydro-indol-1′-yl)-5-oxo-pentanoic [iDMBO-DNI-Glu TFA]",Calcium tranziens by two-photon stimulation,[1],the same as Panel (D)
same,somatically recorded EPSP by two-photon stimulation,[1],the same as Panel (D)
same,toxicity,[1],not detected
COc1ccc([N+](=O)[O-])c2c1CCN2C(=O)CCC(N)C(=O)O.O=C(O)C(F)(F)F (stereo not drawn) [MNI-Glu trifluoroacetic acid salt],weight increase,[2],4%
"COc1ccc([N+](=O)[O-])c2c1CCN2C(=O)CCC(N)C(=O)O (stereo not drawn) [MNI-Glubase, 2-amino-5-(4-methoxy-7-nitro-2,3-dihydro-indol-1-yl)-5-oxo-pentanoic acid]",weight increase,[2],20%
